Among the data in PubChem BioAssay (NCI) are TGI and GI50 values, retold here.

“And” between values parts separate entries of the source, which are not always exact repeats. Identical values can stand only once.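 1) Cells in 96-well plates. 2) Compound, 48 h, 5 concentrations. 3) Linear interpolation between surrounding doses. 4) Unreached endpoint = highest concentration. GI50: concentration for 50% inhibition of growth. TGI is the concentration that stops growth completely.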

Among the test systems are NCI-H23 lung; MALME-3M melanoma; OVCAR-8 ovarian; SN12C renal; OVCAR-4 ovarian; NCI-H226 lung; UACC-62 melanoma; HCC-2998 colon; BT-549 breast; MDA-MB-231 breast.
Holding throughout (assay): NCI anticancer screen, dose series, 48 h

In the case of `Cc1cc(O)c2c(c1)C(=O)c1cc(O)cc(O)c1C2=O`, the TGI in the test on NCI-H23 lung is above 63.6 µM; in the test on MALME-3M melanoma, 50.6 µM; with OVCAR-8 ovarian it was above 100 µM; in the test on SN12C renal it was above 78.9 µM; in the test on OVCAR-4 ovarian, 98.8 µM; with NCI-H226 lung, above 70.9 µM. For the same compound, the TGI with UACC-62 melanoma was 38.1 µM; in the test with HCC-2998 colon, above 100 µM; with BT-549 breast, 86 µM; in the test with MDA-MB-231 breast it was 57.5 µM. Besides, the GI50 in the test with OVCAR-8 ovarian is 34.3 µM; in the test with UACC-62 melanoma, 11.2 µM; in the test on BT-549 breast it was 25.4 µM; with MDA-MB-231 breast, 16.1 µM.
On to `Cc1cc(S(=O)(=O)Nc2nc3ccsc3c(=O)n2Cc2ccco2)c(S)cc1Cl`, for which the GI50 in the test on NCI-H23 lung, with MALME-3M melanoma, with OVCAR-8 ovarian, in the test on SN12C renal, with OVCAR-4 ovarian and in the test with NCI-H226 lung was above 100 µM throughout. Also, the GI50 in the test with UACC-62 melanoma is 53.1 µM; in the test on HCC-2998 colon, above 100 µM; in the test on BT-549 breast it was above 100 µM; in the test on MDA-MB-231 breast it was above 100 µM. Besides, the TGI with NCI-H23 lung, with MALME-3M melanoma, with OVCAR-8 ovarian, in the test on SN12C renal, in the test on OVCAR-4 ovarian and in the test on NCI-H226 lung was above 100 µM each time. For the same compound, the TGI in the test with UACC-62 melanoma, in the test on HCC-2998 colon, in the test with BT-549 breast and in the test with MDA-MB-231 breast was above 100 µM each time.
Regarding `CO[C@H]1[C@H](O)[C@H](O[C@H]2CC[C@@]3(C)[C@H](CC[C@@H]4[C@@H]3CC[C@]3(C)[C@@H](C5=CC(=O)OC5)CC[C@]43O)C2)O[C@@H](C)[C@@H]1O`, the TGI with NCI-H23 lung was 0.00127 µM; in the test with MALME-3M melanoma, 0.000721 µM; with OVCAR-8 ovarian it was 0.00572 µM and 0.0113 µM; with SN12C renal it was 0.00112 µM and < 0.0107 µM; with OVCAR-4 ovarian it was 0.000626 µM; in the test on NCI-H226 lung, 0.0192 µM and < 0.0129 µM. Moreover, the TGI is 0.00312 µM and < 0.0104 µM with UACC-62 melanoma; 0.0584 µM and 0.0399 µM with HCC-2998 colon; 0.000665 µM in the test with BT-549 breast; 0.00907 µM in the test on MDA-MB-231 breast.
On to `CCC(=O)OC1CCn2c1nc1c2C(=O)C(C)=C(N2CC2)C1=O` (stereo unspecified), for which the GI50 is 0.0235 µM with NCI-H23 lung; 0.0307 µM with MALME-3M melanoma; 0.0327 µM in the test with OVCAR-8 ovarian; 0.0285 µM with SN12C renal; 0.293 µM in the test with OVCAR-4 ovarian; 0.186 µM in the test on NCI-H226 lung. The GI50 in the test on UACC-62 melanoma was 0.0231 µM. The TGI is 0.0821 µM and 0.0948 µM in the test on NCI-H23 lung; 0.0961 µM and 0.114 µM in the test with MALME-3M melanoma; 0.338 µM and 0.211 µM with OVCAR-8 ovarian; 0.119 µM and 0.333 µM with SN12C renal; 0.291 µM and 0.667 µM in the test on OVCAR-4 ovarian; 0.441 µM and 0.319 µM in the test with NCI-H226 lung. The TGI in the test on UACC-62 melanoma was 0.0577 µM and 0.127 µM; in the test on HCC-2998 colon, 0.214 µM and 0.18 µM; in the test with BT-549 breast it was 0.192 µM; in the test on MDA-MB-231 breast, 3.32 µM.
On to `N#C/C(=C/C=C(\Cl)c1ccc(Cl)cc1)C(N)=O`, for which the GI50 is 2.4 µM with NCI-H23 lung; 1.48 µM with MALME-3M melanoma; 6.39 µM with OVCAR-8 ovarian; 4.38 µM in the test with SN12C renal; 4.91 µM in the test with OVCAR-4 ovarian; 4.96 µM in the test on NCI-H226 lung. The GI50 in the test with UACC-62 melanoma was 5.87 µM; in the test with HCC-2998 colon, 2.66 µM; in the test on BT-549 breast it was 7 µM; with MDA-MB-231 breast, 1.97 µM. The TGI with NCI-H23 lung was 8.83 µM; in the test on MALME-3M melanoma, 3.55 µM; in the test on OVCAR-8 ovarian, 12.6 µM; in the test with SN12C renal, 18.7 µM; in the test on OVCAR-4 ovarian, above 48.2 µM; in the test on NCI-H226 lung, 13.9 µM. The TGI with UACC-62 melanoma stood at 20.6 µM; in the test on HCC-2998 colon it was 7.71 µM; in the test with BT-549 breast, 13.9 µM; in the test on MDA-MB-231 breast, 4.82 µM.
Take `O=C1/C(=C/c2ccccc2)SC(=Nc2ccccc2)N1Nc1ccccc1`: the GI50 in the test on NCI-H23 lung is 22.6 µM; in the test on MALME-3M melanoma, 19.8 µM; with OVCAR-8 ovarian it was 27.3 µM; in the test on SN12C renal it was 5.48 µM; with OVCAR-4 ovarian, 7.96 µM; in the test with NCI-H226 lung, 10.9 µM. The GI50 in the test with UACC-62 melanoma was 10.3 µM; with HCC-2998 colon, 20 µM; in the test on BT-549 breast it was 6.51 µM; in the test with MDA-MB-231 breast it was 18.7 µM. Also, the TGI in the test on NCI-H23 lung was above 100 µM; in the test with MALME-3M melanoma it was 66.8 µM; with OVCAR-8 ovarian, above 100 µM; in the test with SN12C renal, 23.4 µM; in the test with OVCAR-4 ovarian, above 100 µM; with NCI-H226 lung, 30.5 µM. For the same compound, the TGI was 39.4 µM in the test on UACC-62 melanoma, above 100 µM with HCC-2998 colon, 35.7 µM in the test with BT-549 breast and above 100 µM with MDA-MB-231 breast.
In the case of `COc1ccc(/C=C(/C(=O)N2CCCC2)c2cc(OC)c(OC)c(OC)c2)cc1N`, the GI50 was 4.61 µM in the test on NCI-H23 lung; 4.25 µM in the test on MALME-3M melanoma; 8.92 µM in the test on OVCAR-8 ovarian; 4.86 µM in the test on SN12C renal; 28.2 µM in the test with OVCAR-4 ovarian; 4.44 µM with NCI-H226 lung. Further, the GI50 with UACC-62 melanoma is 1.03 µM; in the test with HCC-2998 colon it was 6.76 µM; in the test with BT-549 breast, 6.52 µM; with MDA-MB-231 breast, 5.75 µM. Further, the TGI in the test with NCI-H23 lung, in the test on MALME-3M melanoma, in the test with OVCAR-8 ovarian, in the test with SN12C renal, in the test with OVCAR-4 ovarian and in the test with NCI-H226 lung was above 100 µM each time. Moreover, the TGI was above 100 µM with UACC-62 melanoma, above 100 µM with HCC-2998 colon, 57.8 µM in the test with BT-549 breast and above 100 µM in the test with MDA-MB-231 breast.
Regarding `COC(=O)c1ccccc1NC(=O)C(=O)CC(=O)c1ccccc1NC1=CC(=O)C(=O)c2ccccc21`, the TGI came to 24 µM with NCI-H23 lung; 11.1 µM in the test with MALME-3M melanoma; 60.9 µM in the test on OVCAR-8 ovarian; 15.1 µM in the test with SN12C renal; 36.2 µM in the test on OVCAR-4 ovarian; 49.7 µM with NCI-H226 lung. The TGI stood at 24.5 µM with UACC-62 melanoma, 66.7 µM in the test with HCC-2998 colon, 39.4 µM in the test on BT-549 breast and 23 µM with MDA-MB-231 breast.
